System: SCC-90 tumor xenograft
Assay: Head and neck SCC-90 tumor xenograft in nude mice
Format: in vivo
Conditions: SCC-90, nude mice
Procedure: An immunodeficient nude mice model was also used to study the in vivo potential of SU093 and SU056 for head and neck cancer. Nude mice (n=3/group) were subcutaneously injected in the right flank with 5×10^6 SCC-90 cells mixed with matrigel and observed regularly until the tumor size reached about 200 mm^3. The treatment regime with drugs including dose, formulation and route of delivery was similar to ovarian cancer study discussed above. Doses of SU093 and SU056 were administered daily until 35 days and mice were sacrificed thereafter. […] At the end of 35 days, calculated tumor volume/mouse was 860.33±21.78 mm^3, 694.67±14.64 mm^3, and 435.00±10.81 mm^3 for control, SU093 and SU056 treatment groups, respectively. This equates to a 20% and 50% reduction in tumor volume for SU093 and SU056 treatment groups, respectively. A decrease in tumor weight of about 21% (P value not significant) and 54% (P<0.002) was also observed for the SU093 and SU56 treatment groups, respectively.

COc1ccc2c(c1)N(CCO)C1=C(C(=O)OC1)C2c1ccccc1 (stereo not drawn) [SU093]
tumor volume/mouse (20 mg/kg IP daily, end of 35 days): 694.67±14.64 mm^3 | decrease in tumor weight (35 days, vs control): about 21% | reduction in tumor volume (35 days, vs control): 20%

Source: patent US11771692B2, “N-hydroxyethyl didehydroazapodophyllotoxins as GBP1 inhibitors and methods of overcoming treatment resistance in cancer” (The Board of Trustees of the Leland Stanford Junior …, priority 2018, dated 2023)
